In publication PMC4807435 (CPT: Pharmacometrics & Systems Pharmacology, 2016):

Legend:
[1] = Population PK model of unbound and total LPV/RTV in HIV-infected pregnant women; assay type: in vivo, human; conditions: for Total body clearance CL/F, back-calculated, median (range): intrinsic clearance × unbound fraction
LPV intrinsic clearance [2] = test: LPV-RTV interaction modeling; assay type: in vivo, human
[3] = 2nd trimester vs. pp; capsules; ref Mirochnick et al., JAIDS, 2008 (9); cited from earlier work
LPV intrinsic clearance [4] = conditions: same interaction function form; ref Wang et al., 32; cited from earlier work
[5] = final model, 500 bootstrap replicates
[6] = final model, 500 bootstrap replicates, weight-scaled model (per 70kg)

| Apparent intrinsic clearance CLu/F, post hoc estimate, median (range) ([1]; Visit 1 (20–24 weeks)) | Total body clearance CL/F, back-calculated, median (range) ([1]; Visit 1 (20–24 weeks)) | Total body clearance CL/F, back-calculated, median (range) ([1]; Visit 2 (30 weeks)) | Apparent intrinsic clearance CLu/F, post hoc estimate, median (range) ([1]; Visit 3 (32 weeks)) | Total body clearance CL/F, back-calculated, median (range) ([1]; Visit 3 (32 weeks)) | Apparent intrinsic clearance CLu/F, post hoc estimate, median (range) ([1]; Visit 4 (8 weeks postpartum)) | Total body clearance CL/F, back-calculated, median (range) ([1]; Visit 4 (8 weeks postpartum)) | Interindividual variability of CLu/F, bootstrap estimates (95% CI) ([1]; final model) | Interindividual variability of CLu/F, estimate ([1]; final model) [%CV] | Interindividual variability of fu, bootstrap estimates (95% CI) ([1]; final model) | Interindividual variability of fu, estimate ([1]; final model) [%CV] | Interoccasion variability of fu, bootstrap estimates (95% CI) ([1]; final model) | Interoccasion variability of fu, estimate ([1]; final model) [%CV] | Interoccasion variability of ka, estimate ([1]; final model) [%CV] | Lag time, estimate ([1]; final model) [h] | ka, estimate ([1]; final model) [h⁻¹] | Lag time, bootstrap estimates (95% CI) [1, 5] | ka, bootstrap estimates (95% CI) [1, 5] | Structure (SMILES) | other results |
| --- | --- | --- | --- | --- | --- | --- | --- | --- | --- | --- | --- | --- | --- | --- | --- | --- | --- | --- | --- |
| 232 (226, 237) L/hr | 5.92 (5.22, 7.22) L/hr | 6.69 (5.73, 8.21) L/hr | 269 (263, 276) L/hr | 6.94 (5.90, 8.46) L/hr | 167 (165, 168) L/hr | 4.28 (3.65, 5.25) L/hr | 2.10 (0.32, 11.4) %CV | 2.70 | 3.81 (0.32, 10.3) %CV | 4.60 | 9.98 (4.68, 13.3) %CV | 10.0 | 138 | 1.77 | 1.07 | 1.75 (1.25, 1.93) h | 0.906 (0.582, 1.78) h^−1 | Cc1cccc(C)c1OCC(=O)N[C@@H](Cc1ccccc1)[C@@H](O)C[C@H](Cc1ccccc1)NC(=O)[C@H](C(C)C)N1CCCNC1=O [LPV, lopinavir] | Increase of median post hoc CLu/F compared to 8 weeks postpartum ([1]; 20–24 weeks of gestation (22 weeks elsewhere in the source)): 38%; Increase of median post hoc CLu/F compared to 8 weeks postpartum ([1]; 30 weeks of gestation): 56%; Increase of median post hoc CLu/F compared to 8 weeks postpartum ([1]; 32 weeks of gestation): 61%; CL/F, estimate ([1]; CL/F = fu × CLu/F): 4.31 L/h; V/F, estimate ([1]; V/F = fu × Vu/F): 88.5 L; Apparent intrinsic clearance CLu/F, post hoc estimate, median (range) ([1]; Visit 2 (30 weeks)): 261 (255, 264) L/hr; fraction unbound ([1]; female, human, plasma, oral, fu, estimate, final model, unbound fraction): 0.0258; Interoccasion variability of CLu/F, bootstrap estimates (95% CI) ([1]; final model): 23.4 (16.1, 29.7) %CV; Interoccasion variability of CLu/F, estimate ([1]; final model): 24.7 %CV; Vu/F, estimate ([1]; final model): 3430 L; CLu/F, bootstrap estimates (95% CI) [1, 5]: 167 (136, 202) L/h; Coefficient of gestational week impact on CLu/F, bootstrap estimates (95% CI) [1, 5]: 0.0148 (0.00835, 0.0223); Vu/F, bootstrap estimates (95% CI) [1, 5]: 3325 (2655, 4256) L; CLu/F, estimate ([1]; final model, population value at gestational week zero (postpartum reference)): 167 L/h; Coefficient of gestational week impact on CLu/F, estimate ([1]; individual final model, CLu/F = θ × e^(coef×WEEK)): 0.0148; Unbound fraction, pregnancy vs postpartum ([1]; population PK covariate analysis): not significantly different; Difference among unbound AUC fractions across the four study visits ([1]; post hoc repeated-measures ANOVA, P > 0.05): no significant findings; LPV clearance estimate (CLu/F) (LPV intrinsic clearance [2]; Basic joint model: LPV and RTV individual final models without interactions): 167 L/h; Decrease in AUC [3]: 52% |
| 273 (161, 421) L/hr | 38.2 (26.0, 42.1) L/hr | 52.3 (33.6, 74.1) L/hr | 357 (191, 508) L/hr | 58.5 (32.6, 93.6) L/hr | 178 (101, 257) L/hr | 26.9 (16.6, 37.5) L/hr | 10.6 (1.92, 19.0) %CV | 8.5 | 23.3 (12.2, 34.4) %CV | 24.4 | 20.8 (12.6, 28.6) %CV | 23.5 | 141.8 | 1.86 | 1.01 | 1.86 (1.67, 1.94) h | 1.01 (0.340, 2.00) h^−1 | CC(C)c1nc(CN(C)C(=O)N[C@H](C(=O)N[C@@H](Cc2ccccc2)C[C@H](O)[C@H](Cc2ccccc2)NC(=O)OCc2cncs2)C(C)C)cs1 [RTV, ritonavir] | Interoccasion variability of F, bootstrap estimates (95% CI) ([1]; final model): 30.9 (17.1, 46.1) %CV; Interoccasion variability of F, estimate ([1]; final model): 36.2 %CV; Interoccasion variability of ka, bootstrap estimates (95% CI) ([1]; final model): 142 (81.5, 201) %CV; CLu/F, bootstrap estimates (95% CI) [1, 6]: 157 (120, 202) L/h; Vu/F, bootstrap estimates (95% CI) [1, 6]: 1630 (1040, 2100) L; Interaction parameter (coef) (LPV intrinsic clearance [2]; Model 6, CRTV exponential model, unbound RTV concentration): 0.0028; Interaction coefficient in terms of total RTV concentration (LPV intrinsic clearance [2]; exponential interaction function): 0.00041; Interaction value (LPV-RTV interaction coefficient) (LPV intrinsic clearance [4]): 0.00064 |
